“And” between values parts separate entries of the source, which are not always exact repeats. Identical values can stand only once.
Legend:
PPAR-α = target: T1, PPAR-α (Homo sapiens, UniProt Q07869); assay: Scintillation Proximity Assay (SPA), displacement of 3H labeled GW2331; type: binding; conditions: 3H GW2331 displacement, read-out: PPAR-alpha Ki
T1 sequence (Q07869 1-468): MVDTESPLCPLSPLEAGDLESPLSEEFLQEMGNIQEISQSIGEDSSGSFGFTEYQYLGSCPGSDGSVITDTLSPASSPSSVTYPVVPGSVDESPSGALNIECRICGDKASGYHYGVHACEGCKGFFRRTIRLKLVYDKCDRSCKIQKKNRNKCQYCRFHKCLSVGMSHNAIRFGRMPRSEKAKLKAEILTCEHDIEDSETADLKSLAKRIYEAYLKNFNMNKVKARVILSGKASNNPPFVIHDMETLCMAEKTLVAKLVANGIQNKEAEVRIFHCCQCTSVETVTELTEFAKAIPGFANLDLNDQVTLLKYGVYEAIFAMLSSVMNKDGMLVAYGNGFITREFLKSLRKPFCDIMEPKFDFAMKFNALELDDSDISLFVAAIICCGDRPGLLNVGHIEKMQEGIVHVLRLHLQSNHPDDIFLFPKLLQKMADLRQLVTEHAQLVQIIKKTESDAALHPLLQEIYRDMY
Excerpt: (§1) Scintillatian Proximity Assay (SPA) Assays
(§2) In the SPA assay, 3H labeled darglitazone (for PPAR-γ) or GW2331 (for PPAR-α) is bound to the PPAR protein captured on SPA polylysine beads and generates radioactive count signal that can be detected by TopCounts (Packard). The PPAR-bound 3H labeled ligand can be displaced by an unlabeled compound. The Ki of the compound can be then determined by the extent of displacement at various compound concentrations. Reagents: • SPA polylysine beads, which can be purchased from Amersham Bioscience. • H labeled Darglitazone for PPAR-γ. • H labeled GW2331 for PPAR-α. • PPAR proteins. • Buffer—PBS, 10% glycerol, 14 mM beta-mercaptoethanol.

PPAR-γ = target: T2, PPAR-γ (Homo sapiens, UniProt P37231); assay: Scintillation Proximity Assay (SPA), displacement of 3H labeled darglitazone; type: binding; conditions: 3H darglitazone displacement, read-out: PPAR-gamma Ki
T2 sequence (P37231 1-505): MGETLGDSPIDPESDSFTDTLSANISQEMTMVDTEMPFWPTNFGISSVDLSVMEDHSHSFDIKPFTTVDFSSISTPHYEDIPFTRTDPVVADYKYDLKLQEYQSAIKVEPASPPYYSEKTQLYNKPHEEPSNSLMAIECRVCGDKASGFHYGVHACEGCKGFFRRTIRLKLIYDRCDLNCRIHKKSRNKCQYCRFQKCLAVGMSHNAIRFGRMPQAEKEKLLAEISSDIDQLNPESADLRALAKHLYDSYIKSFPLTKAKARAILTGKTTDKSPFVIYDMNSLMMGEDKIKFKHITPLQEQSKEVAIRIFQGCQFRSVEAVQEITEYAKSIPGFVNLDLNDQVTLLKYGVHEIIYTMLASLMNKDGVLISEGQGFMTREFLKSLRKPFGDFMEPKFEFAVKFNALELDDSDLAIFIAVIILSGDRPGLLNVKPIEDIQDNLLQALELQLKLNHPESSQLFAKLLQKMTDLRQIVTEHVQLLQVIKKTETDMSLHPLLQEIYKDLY
Excerpt: as §1, §2

| Compound | Ki (PPAR-α) | Ki (PPAR-γ) |
| --- | --- | --- |
| CC(C)(Oc1cccc(-c2cccc(OCc3ccc(C(F)(F)F)cc3)c2)c1)C(=O)O [Example A-02, 2-Methyl-2-[(3′-{[4-(trifluoromethyl)benzyl]oxy}1,1′-biphenyl-3-yl)oxy]propanoic acid] | 550 nM | – |
| Cc1ccc(N2CCC(CCOc3cccc(-c4cccc(OC(C)(C)C(=O)O)c4)c3)CC2)nn1 [Example A-03, 2-Methyl-2-[(3′-{2-[1-(6-methylpyridazin-3-yl)piperidin-4-yl]ethoxy}1,1′-biphenyl-3-yl)oxy]propanoic acid] | 19000 nM | 10000 nM |
| Cc1oc(-c2ccccc2)nc1CCOc1cccc(-c2cccc(OC3(C(=O)O)CCC3)c2)n1 [Example A-07] | 120 nM | – |
| Cc1oc(-c2ccccc2)nc1CCOc1ccc(-c2cccc(OC3(C(=O)O)CCC3)c2)cc1 [Example A-10] | 4400 nM | 1500 nM |
| Cc1oc(-c2cccc(F)c2)nc1COc1cccc(-c2cccc(OC3(C(=O)O)CCC3)c2)c1 [Example A-11] | 120 nM | 580 nM |
| Cc1oc(-c2ccccc2)nc1CCCOc1cccc(-c2cccc(OC3(C(=O)O)CCC3)c2)c1 [Example A-12] | 350 nM | 51 nM |
| Cc1oc(-c2ccccc2)nc1CCCOc1cccc(-c2cccc(OC(C)(C)C(=O)O)n2)c1 [Example A-13] | 10000 nM | 3500 nM |
| O=C(O)C1(Oc2cccc(-c3cccc(OCc4cc(-c5ccccc5)no4)c3)c2)CCC1 [Example A-14] | 150 nM | 1300 nM |
| COc1ccc(-c2nc(COc3cccc(-c4cccc(OC5(C(=O)O)CCC5)c4)c3)no2)cc1 [Example A-17] | 1600 nM | 1900 nM |
| Cc1nn(-c2ccccc2)nc1COc1cccc(-c2cccc(OC3(C(=O)O)CCC3)c2)c1 [Example A-18] | 14000 nM | 1700 nM |
| Cn1nc(-c2ccccc2)nc1COc1cccc(-c2cccc(OC3(C(=O)O)CCC3)c2)c1 [Example A-19] | 700 nM | 59 nM |
| Cc1onc(-c2ccccc2)c1COc1cccc(-c2cccc(OC3(C(=O)O)CCC3)c2)c1 [Example A-20] | 140 nM | 180 nM |
| Cc1oc(-c2cccc(F)c2)nc1CCOc1cccc(-c2cccc(OC(C)(C)C(=O)O)c2)c1 [Example A-21] | 310 nM | 88 nM |
| Cc1oc(-c2cc(F)cc(F)c2)nc1CCOc1cccc(-c2cccc(OC(C)(C)C(=O)O)c2)c1 [Example A-22] | 850 nM | 170 nM |
| Cc1oc(-c2ccccc2)nc1CCCOc1cccc(-c2cccc(OC(C)(C)C(=O)O)c2)c1 [Example A-23] | 180 nM | 390 nM |
| Cc1oc(-c2ccccc2)nc1COc1cccc(-c2cccc(OC(C)(C)C(=O)O)c2)c1 [Example A-24] | 18 nM | 780 nM |
| Cn1nc(-c2ccccc2)nc1CCOc1cccc(-c2cccc(OC(C)(C)C(=O)O)c2)c1 [Example A-25] | 4200 nM | 3200 nM |
| Cc1nn(-c2ccccc2)nc1CCOc1cccc(-c2cccc(OC(C)(C)C(=O)O)c2)c1 [Example A-26] | 330 nM | 150 nM |
| CC(C)(Oc1cccc(-c2cccc(OCCCOCc3ccccc3)c2)c1)C(=O)O [Example A-27] | 1300 nM | 2400 nM |
| CCC(Oc1cccc(CNC(=O)OCCc2cccc(C(F)(F)F)c2)c1)C(=O)O (stereo not drawn) [Example B-02] | 2200 nM | – |
| CC(C)(Oc1cccc(CNC(=O)OCCc2cccc(C(F)(F)F)c2)c1)C(=O)O [Example B-03] | 9000 nM | 31000 nM |

| Compound | Ki (PPAR-α) | Ki (PPAR-γ) |
| --- | --- | --- |
| CC(C)(Oc1cccc(COC(=O)NCCc2ccc(C(F)(F)F)cc2)c1)C(=O)O [Example B-04] | 48000 nM | 1500 nM |
| Cc1oc(-c2ccccc2)nc1CCOC(=O)NCc1cccc(OC(C)(C)C(=O)O)c1 [Example B-05] | 2040 nM and 3200 nM and 3600 nM | 1330 nM and 2900 nM and 2000 nM |
| Cc1oc(-c2ccccc2)nc1COC(=O)NCc1cccc(OC(C)(C)C(=O)O)c1 [Example B-06] | 130 nM | 370 nM |
| Cc1oc(-c2ccccc2)nc1CCCOC(=O)NCc1ccc(OC(C)(C)C(=O)O)cc1 [Example B-07] | 12000 nM | 650 nM |
| Cc1oc(-c2ccccc2)nc1COC(=O)NCc1ccc(OC(C)(C)C(=O)O)cc1 [Example B-08] | 3100 nM | 480 nM |
| CCC(Oc1cccc(CNC(=O)OCCc2nc(-c3ccccc3)oc2C)c1)C(=O)O (stereo not drawn) [Example B-13] | 9000 nM | – |
| CCC(Oc1cccc(CNC(=O)OCCCc2nc(-c3ccccc3)oc2C)c1)C(=O)O (stereo not drawn) [Example B-18] | 82 nM | – |
| CC(C)(Oc1cccc(CNS(=O)(=O)c2ccc(Oc3ccccc3)cc2)c1)C(=O)O [Example B-20] | 1600 nM | – |
| CCC(Oc1cccc(CNC(=O)OCc2ccc(-c3noc(C)n3)cc2)c1)C(=O)O (stereo not drawn) [Example B-27] | 220 nM | – |
| CC(Cc1ccccc1)OC(=O)NCc1cccc(OC(C)(C)C(=O)O)c1 (stereo not drawn) [Example B-28] | 7800 nM | – |
| Cc1oc(-c2ccccc2)nc1CCOc1ccc(CC2(C(=O)O)CCCC2)cc1 [Example C-02] | 390 nM | – |
| Cc1oc(-c2ccccc2)nc1CCCOc1ccc(CC2(C(=O)O)CCCC2)cc1 [Example C-03] | 2900 nM | – |
| Cc1oc(-c2ccccc2)nc1CCOc1ccc(CC2(C(=O)O)CCOCC2)cc1 [Example C-05] | 15000 nM | – |
| O=C(O)C1(Cc2ccc(OCCCc3nc(-c4ccccc4)oc3-c3ccccc3)cc2)CCC1 [Example C-38] | – | 7200 nM |
| Cc1oc(-c2ccccc2)nc1CCOc1ccc(C(O)C2(C(=O)O)CCC2)cn1 (stereo not drawn) [Example C-44] | 36000 nM | – |
| Cc1oc(-c2ccccc2)nc1CCOc1ccc(CC2(C(=O)O)CCCCC2)cn1 [Example C-47] | 8300 nM | – |
| Cc1oc(-c2ccccc2)nc1CCOc1ccc(CC2(C(=O)O)CCCO2)cn1 (stereo not drawn) [Example C-48, 2-({6-[2-(5-methyl-2-phenyl-1,3-oxazol-4-yl)ethoxy]pyridin-3-yl}methyl)tetrahydrofuran-2-carboxylic acid] | 240 nM | – |
| Cc1oc(-c2ccccc2)nc1CCCOc1ccc(CC2(C(=O)O)CCCO2)nc1 (stereo not drawn) [Example C-55] | – | 6000 nM |
| Cc1oc(-c2ccccc2)nc1CCOc1ccc(CC2(C(=O)O)CCCCO2)cn1 (stereo not drawn) [Example C-56] | 78 nM | – |
| Cc1oc(-c2cccc(Cl)c2)nc1CCOc1ccc(CC2(C(=O)O)CCCO2)cn1 (stereo not drawn) [Example C-59] | 54 nM | – |
| COc1ccc(-c2nc(CCOc3ccc(CC4(C(=O)O)CCCO4)cn3)c(C)o2)cc1 (stereo not drawn) [Example C-60] | 65 nM | – |

| Compound | Ki (PPAR-α) | Ki (PPAR-γ) |
| --- | --- | --- |
| Cc1oc(-c2ccc(C(F)(F)F)cc2)nc1CCOc1ccc(CC2(C(=O)O)CCCO2)cn1 (stereo not drawn) [Example C-63] | 21 nM | – |
| Cc1oc(-c2ccc(Cl)cc2)nc1CCOc1ccc(CC2(C(=O)O)CCCO2)cn1 (stereo not drawn) [Example C-64] | 14 nM | – |
| Cc1ccc(-c2nc(CCOc3ccc(CC4(C(=O)O)CCCO4)cn3)c(C)o2)cc1 (stereo not drawn) [Example C-66] | 31 nM | – |
| Cc1nc(CCOc2ccc(CC3(C(=O)O)CCCO3)cn2)c(C)s1 (stereo not drawn) [Example C-68] | – | 4200 nM |
| Cc1ccccc1CCOc1ccc(CC2(C(=O)O)CCCO2)cn1 (stereo not drawn) [Example C-70] | 6400 nM | – |
| Cc1ccc(CCOc2ccc(CC3(C(=O)O)CCCO3)cn2)cc1 (stereo not drawn) [Example C-71] | 9700 nM | – |
| CS(=O)(=O)Oc1ccc(CCOc2ccc(CC3(C(=O)O)CCCO3)cn2)cc1 (stereo not drawn) [Example C-72] | 7100 nM | – |
| CC(C)(C)OC(=O)Nc1ccc(CCOc2ccc(CC3(C(=O)O)CCCO3)cn2)cc1 (stereo not drawn) [Example C-73] | – | 42 nM |
| Cc1oc(-c2ccccc2)nc1CCCCc1ccc(CC2(C(=O)O)CCCO2)cn1 (stereo not drawn) [Example C-75] | – | 820 nM |
| Cc1oc(-c2ccc(C(F)(F)F)c(F)c2)nc1CCOc1ccc(CC2(C(=O)O)CCCO2)cc1 (stereo not drawn) [Example C-82] | – | 16 nM |
| COC(Cc1ccc(OCCc2ccc(OS(C)(=O)=O)cc2)nc1)C(=O)O [Example D-12] | – | 8100 nM |
| CCOC(Cc1ccc(OCCc2ccc(OCCOC)cc2)nc1)C(=O)O [Example D-16] | – | 6400 nM |
| CCOC(Cc1ccc(OCCCc2nc(-c3ccccc3)oc2C)cn1)C(=O)O [Example D-24] | 930 nM | – |
| CCOC(Cc1ccc(OCCc2nc(C)sc2C)cn1)C(=O)O [Example D-25] | – | 2900 nM |
| COC(C)(Cc1ccc(OCCCc2nc(-c3ccccc3)oc2C)nc1)C(=O)O [Example D-27] | – | 7800 nM |
| COC(C)(Cc1ccc(OCCc2nc(-c3ccccc3)oc2C)nc1)C(=O)O [Example D-35] | 330 nM | – |
| COC(C)(Cc1ccc(OCCc2nc(C(C)C)oc2C)nc1)C(=O)O [Example D-38] | – | 9600 nM |
| COC(C)(Cc1ccc(OCCc2nc(-c3cc(C)nn3C)oc2C)nc1)C(=O)O [Example D-39] | – | 5000 nM |
| COC(C)(Cc1ccc(OCCc2ccc(OC(F)(F)F)cc2)nc1)C(=O)O [Example D-41] | 5900 nM | – |
